pEC50, pIC50: −log10 of the molar value.
What was measured:
CD73 [1] = target: T1, CD73 (Homo sapiens (Human), UniProt P21589); assay type: biochemical; settings: 1 mM NaH2PO4 in enzyme buffer, CD73 0.3 nM, AMP 15 uM
Method: Compound serial dilutions were pre-spotted into Thermo Nunc assay plate. 50 uL CD73 enzyme buffer (CD73 purchased from R&D system=0.6 nM, 25 mM Tris, pH 7.4, 5 mM MgCl2, 1 mM NaH2PO4) was added into the assay plate and incubate for 15 mins. […] After incubation for 60 mins, the supernatant (20 uL) was transferred into 384-well NUNC plate pre-filled with 60 uL Quench buffer (80% organic and 20% water+0.1% FA) with internal standard. The plate was spun down at 4500 rpm for 20 mins, then 20 uL of supernatant was transferred to another Nunc plate prefilled with 80 uL of water. The samples were analyzed using Rapid fire.

CD73 [2] = target: T1, CD73; assay: MDA-MB-231 Cell Based CD73 Activity Assay (DMEM); settings: MDA-MB-231-GFP cells, DMEM medium with 10% human plasma, 200 uM AMP

T1 sequence (P21589 27-574): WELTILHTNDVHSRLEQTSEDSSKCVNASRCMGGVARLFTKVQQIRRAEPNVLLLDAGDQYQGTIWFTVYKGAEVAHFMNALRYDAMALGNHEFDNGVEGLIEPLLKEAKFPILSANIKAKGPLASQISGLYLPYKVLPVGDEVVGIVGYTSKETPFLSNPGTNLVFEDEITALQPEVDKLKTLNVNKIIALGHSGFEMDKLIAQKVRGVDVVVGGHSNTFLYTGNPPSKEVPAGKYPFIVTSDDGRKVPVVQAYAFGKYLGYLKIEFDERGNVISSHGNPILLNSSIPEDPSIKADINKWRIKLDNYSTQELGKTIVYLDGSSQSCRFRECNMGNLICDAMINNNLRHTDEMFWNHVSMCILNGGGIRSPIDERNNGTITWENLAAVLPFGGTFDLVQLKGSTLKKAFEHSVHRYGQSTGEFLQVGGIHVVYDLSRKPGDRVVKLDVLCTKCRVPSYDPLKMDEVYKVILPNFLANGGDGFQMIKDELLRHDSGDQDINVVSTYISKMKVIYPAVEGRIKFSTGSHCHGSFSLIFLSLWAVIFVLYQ

| pIC50 (CD73 [1]) | pEC50 (CD73 [2]) | SMILES |
| --- | --- | --- |
| 7.90 | 7.29 | O=c1[nH]cc(-c2cc(N3C[C@@H](Oc4ccc(C(F)(F)F)cn4)C(F)(F)C3)c3nccn3n2)c(=O)[nH]1 [Example 530, (R)-5-(8-(3,3-difluoro-4-((5-(trifluoromethyl)pyridin-2-yl)oxy)pyrrolidin-1-yl)imidazo[1,2-b]pyridazin-6-yl)pyrimidine-2,4(1H,3H)-dione] |
| 8.35 | 7.67 | O=c1[nH]cc(-c2cc(N3C[C@@H](Oc4ncc(C(F)(F)F)cn4)C(F)(F)C3)c3nccn3n2)c(=O)[nH]1 [Example 532, (R)-5-(8-(3,3-difluoro-4-((5-(trifluoromethyl)pyrimidin-2-yl)oxy)pyrrolidin-1-yl)imidazo[1,2-b]pyridazin-6-yl)pyrimidine-2,4(1H,3H)-dione] |
| 8.01 | 8.29 | CC(C)NC(=O)O[C@@H]1CN(c2cc(-c3c[nH]c(=O)[nH]c3=O)nn3ccnc23)CC1(F)F [Example 534, (R)-1-(6-(2,4-dioxo-1,2,3,4-tetrahydropyrimidin-5-yl)imidazo[1,2-b]pyridazin-8-yl)-4,4-difluoropyrrolidin-3-yl isopropylcarbamate] |
| 8.42 | 8.30 | O=C(OC1CN(c2cc(-c3c[nH]c(=O)[nH]c3=O)nn3ccnc23)CC1(F)F)N1CC(F)(F)C1 (stereo not shown) [Example 536, 1-(6-(2,4-dioxo-1,2,3,4-tetrahydropyrimidin-5-yl)imidazo[1,2-b]pyridazin-8-yl)-4,4-difluoropyrrolidin-3-yl 3,3-difluoroazetidine-1-carboxylate] |
| 7.94 | 7.31 | O=c1[nH]cc(-c2cc(N3C[C@@H](Oc4ccccn4)C(F)(F)C3)c3nccn3n2)c(=O)[nH]1 [Example 538, (R)-5-(8-(3,3-difluoro-4-(pyridin-2-yloxy)pyrrolidin-1-yl)imidazo[1,2-b]pyridazin-6-yl)pyrimidine-2,4(1H,3H)-dione] |
| 9.26 | 7.44 | O=C(OCC(F)(F)F)O[C@H]1CN(c2cc(-c3c[nH]c(=O)[nH]c3=O)nn3ccnc23)CC1(F)F [Example 541, (S)-1-(6-(2,4-dioxo-1,2,3,4-tetrahydropyrimidin-5-yl)imidazo[1,2-b]pyridazin-8-yl)-4,4-difluoropyrrolidin-3-yl (2,2,2-trifluoroethyl) carbonate] |
| 8.84 | 7.76 | O=C(OCC(F)(F)F)O[C@@H]1CN(c2cc(-c3c[nH]c(=O)[nH]c3=O)nn3ccnc23)CC1(F)F [Example 543, (R)-1-(6-(2,4-dioxo-1,2,3,4-tetrahydropyrimidin-5-yl)imidazo[1,2-b]pyridazin-8-yl)-4,4-difluoropyrrolidin-3-yl (2,2,2-trifluoroethyl) carbonate] |
| 9.00 | 9.89 | CC(C)(C)NC(=O)O[C@H]1CN(c2cc(-c3c[nH]c(=O)[nH]c3=O)nn3ccnc23)CC1(F)F [Example 544, (S)-1-(6-(2,4-dioxo-1,2,3,4-tetrahydropyrimidin-5-yl)imidazo[1,2-b]pyridazin-8-yl)-4,4-difluoropyrrolidin-3-yl tert-butylcarbamate] |
| 8.91 | 9.16 | C[C@@H](NC(=O)O[C@H]1CN(c2cc(-c3c[nH]c(=O)[nH]c3=O)nn3ccnc23)CC1(F)F)C(F)(F)F [Example 546, (S)-1-(6-(2,4-dioxo-1,2,3,4-tetrahydropyrimidin-5-yl)imidazo[1,2-b]pyridazin-8-yl)-4,4-difluoropyrrolidin-3-yl ((R)-1,1,1-trifluoropropan-2-yl)carbamate] |
| 8.80 | 7.92 | O=c1[nH]cc(-c2cc([C@H]3C[C@@H]3c3ccc(C(F)(F)F)cc3)c3nccn3n2)c(=O)[nH]1 [Example 554, 5-(8-((1S,2S)-2-(4-(trifluoromethyl)phenyl)cyclopropyl)imidazo[1,2-b]pyridazin-6-yl)pyrimidine-2,4(1H,3H)-dione] |
| 8.54 | 7.69 | N#Cc1ccc([C@H]2C[C@@H]2c2cc(-c3c[nH]c(=O)[nH]c3=O)nn3ccnc23)c(F)c1F [Example 558, 4-((1S,2S)-2-(6-(2,4-dioxo-1,2,3,4-tetrahydropyrimidin-5-yl)imidazo[1,2-b]pyridazin-8-yl)cyclopropyl)-2,3-difluorobenzonitrile] |

The remaining lines, values behind:

| SMILES | pIC50 (CD73 [1]) | pEC50 (CD73 [2]) |
| --- | --- | --- |
| O=c1[nH]cc(-c2cc(N3C[C@H](Oc4ncc(C(F)(F)F)cn4)C(F)(F)C3)c3nccn3n2)c(=O)[nH]1 [Example 531, (S)-5-(8-(3,3-difluoro-4-((5-(trifluoromethyl)pyrimidin-2-yl)oxy)pyrrolidin-1-yl)imidazo[1,2-b]pyridazin-6-yl)pyrimidine-2,4(1H,3H)-dione] | 8.87 | 7.94 |
| CC(C)NC(=O)O[C@H]1CN(c2cc(-c3c[nH]c(=O)[nH]c3=O)nn3ccnc23)CC1(F)F [Example 533, (S)-1-(6-(2,4-dioxo-1,2,3,4-tetrahydropyrimidin-5-yl)imidazo[1,2-b]pyridazin-8-yl)-4,4-difluoropyrrolidin-3-yl isopropylcarbamate] | 9.11 | 9.77 |
| O=C(NCC(F)(F)F)OC1CN(c2cc(-c3c[nH]c(=O)[nH]c3=O)nn3ccnc23)CC1(F)F (stereo not shown) [Example 535, 1-(6-(2,4-dioxo-1,2,3,4-tetrahydropyrimidin-5-yl)imidazo[1,2-b]pyridazin-8-yl)-4,4-difluoropyrrolidin-3-yl (2,2,2-trifluoroethyl)carbamate] | 8.79 | 9.15 |
| O=c1[nH]cc(-c2cc(N3C[C@H](Oc4ccccn4)C(F)(F)C3)c3nccn3n2)c(=O)[nH]1 [Example 537, (S)-5-(8-(3,3-difluoro-4-(pyridin-2-yloxy)pyrrolidin-1-yl)imidazo[1,2-b]pyridazin-6-yl)pyrimidine-2,4(1H,3H)-dione] | 9.38 | 8.68 |
| O=C(NCC(F)(F)F)O[C@H]1CN(c2cc(-c3c[nH]c(=O)[nH]c3=O)nn3ccnc23)CC1(F)F [Example 545, (S)-1-(6-(2,4-dioxo-1,2,3,4-tetrahydropyrimidin-5-yl)imidazo[1,2-b]pyridazin-8-yl)-4,4-difluoropyrrolidin-3-yl (2,2,2-trifluoroethyl)carbamate] | 9.40 | 9.66 |
| C[C@H](NC(=O)O[C@H]1CN(c2cc(-c3c[nH]c(=O)[nH]c3=O)nn3ccnc23)CC1(F)F)C(F)(F)F [Example 547, (S)-1-(6-(2,4-dioxo-1,2,3,4-tetrahydropyrimidin-5-yl)imidazo[1,2-b]pyridazin-8-yl)-4,4-difluoropyrrolidin-3-yl ((S)-1,1,1-trifluoropropan-2-yl)carbamate] | 9.51 | 9.89 |
| COC[C@@H](C)NC(=O)O[C@H]1CN(c2cc(-c3c[nH]c(=O)[nH]c3=O)nn3ccnc23)CC1(F)F [Example 548, (S)-1-(6-(2,4-dioxo-1,2,3,4-tetrahydropyrimidin-5-yl)imidazo[1,2-b]pyridazin-8-yl)-4,4-difluoropyrrolidin-3-yl ((R)-1-methoxypropan-2-yl)carbamate] | 9.20 | 9.89 |
| COC[C@H](C)NC(=O)O[C@H]1CN(c2cc(-c3c[nH]c(=O)[nH]c3=O)nn3ccnc23)CC1(F)F [Example 549, (S)-1-(6-(2,4-dioxo-1,2,3,4-tetrahydropyrimidin-5-yl)imidazo[1,2-b]pyridazin-8-yl)-4,4-difluoropyrrolidin-3-yl ((S)-1-methoxypropan-2-yl)carbamate] | 9.00 | 9.55 |
| CC(NC(=O)O[C@H]1CN(c2cc(-c3c[nH]c(=O)[nH]c3=O)nn3ccnc23)CC1(F)F)C(F)F (stereo partly drawn) [Example 550, (S)-1-(6-(2,4-dioxo-1,2,3,4-tetrahydropyrimidin-5-yl)imidazo[1,2-b]pyridazin-8-yl)-4,4-difluoropyrrolidin-3-yl (1,1-difluoropropan-2-yl)carbamate] | 8.78 | 9.08 |
| O=C(NC12CC(C1)C2)O[C@H]1CN(c2cc(-c3c[nH]c(=O)[nH]c3=O)nn3ccnc23)CC1(F)F [Example 551, (S)-1-(6-(2,4-dioxo-1,2,3,4-tetrahydropyrimidin-5-yl)imidazo[1,2-b]pyridazin-8-yl)-4,4-difluoropyrrolidin-3-yl bicyclo[1.1.1]pentan-1-ylcarbamate] | 9.62 | 9.89 |
| N#Cc1cc([C@H]2C[C@@H]2c2cc(-c3c[nH]c(=O)[nH]c3=O)nn3ccnc23)ccc1Cl [Example 553, 2-chloro-5-((1S,2S)-2-(6-(2,4-dioxo-1,2,3,4-tetrahydropyrimidin-5-yl)imidazo[1,2-b]pyridazin-8-yl)cyclopropyl)benzonitrile] | 8.86 | 8.16 |
| N#Cc1c(F)cc([C@H]2C[C@@H]2c2cc(-c3c[nH]c(=O)[nH]c3=O)nn3ccnc23)cc1F [Example 557, 4-((1S,2S)-2-(6-(2,4-dioxo-1,2,3,4-tetrahydropyrimidin-5-yl)imidazo[1,2-b]pyridazin-8-yl)cyclopropyl)-2,6-difluorobenzonitrile] | 8.77 | 8.01 |
| COc1cc([C@H]2C[C@@H]2c2cc(-c3c[nH]c(=O)[nH]c3=O)nn3ccnc23)ccc1C#N [Example 559, 4-((1S,2S)-2-(6-(2,4-dioxo-1,2,3,4-tetrahydropyrimidin-5-yl)imidazo[1,2-b]pyridazin-8-yl)cyclopropyl)-2-methoxybenzonitrile] | 9.01 | 8.11 |
| Cc1cc([C@H]2C[C@@H]2c2cc(-c3c[nH]c(=O)[nH]c3=O)nn3ccnc23)ccc1C#N [Example 560, 4-((1S,2S)-2-(6-(2,4-dioxo-1,2,3,4-tetrahydropyrimidin-5-yl)imidazo[1,2-b]pyridazin-8-yl)cyclopropyl)-2-methylbenzonitrile] | 9.07 | 8.54 |
| O=c1[nH]cc(-c2cc([C@H]3C[C@@H]3c3ccc(OC(F)F)cc3)c3nccn3n2)c(=O)[nH]1 [Example 561, 5-(8-((1S,2S)-2-(4-(difluoromethoxy)phenyl)cyclopropyl)imidazo[1,2-b]pyridazin-6-yl)pyrimidine-2,4(1H,3H)-dione] | 9.15 | 8.51 |
